Target: Set1/Ash2 histone methyltransferase complex subunit ASH2 (Homo sapiens, UniProt Q9UBL3)
Test: Filter-paper Assay
Method: This assay relies on Whatman P-81 filter paper, which binds peptides but not SAM. Protein Methyl Transferases (PMTs) transfer 3H-Me of [3H-Me]-SAM to peptide substrates and the resultant 3H-methylated, filter-paper-bound peptide is quantified with a scintillation counter. Briefly, 6 μL of the methylation reaction was spotted onto Whatman P-81 phosphocellulose filter paper (1.2×1.2 cm2) to immobilize the 3H-labeled peptide. After drying in air for 20 min, the filter paper was immersed into 20 mL of 50 mM Na2CO3/NaHCO3 buffer (pH=9.2), and washed 5 times for 10 min each time. The washed filter paper was then transferred to a 20 mL scintillation vial containing 1 mL of distilled water and 10 mL of Ultima Gold scintillation cocktail or 7 mL scintillation vial containing 0.5 mL od distilled water and 5 mL of scintillation cocktail (PerkinElmer). The radioactivity was quantified by a Beckman LS6000IC liquid scintillation counter.

Chain of Set1/Ash2 histone methyltransferase complex subunit ASH2 (Q9UBL3 whole entry, one chain of several): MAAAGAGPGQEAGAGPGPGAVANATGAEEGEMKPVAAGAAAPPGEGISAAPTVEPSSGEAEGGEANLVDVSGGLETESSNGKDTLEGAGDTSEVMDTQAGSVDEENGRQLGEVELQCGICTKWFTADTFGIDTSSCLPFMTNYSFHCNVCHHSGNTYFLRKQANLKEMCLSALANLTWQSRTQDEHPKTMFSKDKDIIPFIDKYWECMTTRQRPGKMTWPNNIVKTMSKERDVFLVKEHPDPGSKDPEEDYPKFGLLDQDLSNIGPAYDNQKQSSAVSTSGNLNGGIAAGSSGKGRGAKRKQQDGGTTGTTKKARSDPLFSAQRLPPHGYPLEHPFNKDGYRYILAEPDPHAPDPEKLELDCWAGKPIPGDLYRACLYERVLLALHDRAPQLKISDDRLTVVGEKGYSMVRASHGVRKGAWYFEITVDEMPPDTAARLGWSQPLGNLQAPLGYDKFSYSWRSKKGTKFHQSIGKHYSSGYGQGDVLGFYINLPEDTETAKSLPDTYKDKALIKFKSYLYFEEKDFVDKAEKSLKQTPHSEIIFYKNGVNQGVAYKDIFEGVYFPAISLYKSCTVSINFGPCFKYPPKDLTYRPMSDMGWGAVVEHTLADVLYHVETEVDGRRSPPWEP

Compound	IC50
Nc1ncnc2c1ncn2C1OC(C[C@H](CC[C@H](N)C(=O)NCCc2cc(-c3ccccc3)[nH]n2)Nc2ccccc2)C(O)C1O (stereo partly drawn) [US12043645, Example 5]	2200 nM
COc1ccc(CCNC(=O)[C@@H](N)CC[C@@H](CC2OC(n3cnc4c(N)ncnc43)C(O)C2O)Nc2ccccc2)cc1 (stereo partly drawn) [US12043645, Example 1]	390 nM
CCCNC(=O)[C@@H](N)CC[C@@H](CC1OC(n2cnc3c(N)ncnc32)C(O)C1O)Nc1ccccc1 (stereo partly drawn) [US12043645, Example 7]	20 nM

Source: BindingDB's records for patent US12043645 (Memorial Sloan-Kettering Cancer Center, 2024)
